Several values for one entry are separate records, joined by “and”; a condition that tells them apart may be missing. Identical values can stand only once. Toxic doses and inconclusive results are not listed.
System: P388 leukemia ip, CD2F1 mice, survival T/C
Experiment: NCI In Vivo Anticancer Drug Screen. Data for tumor model P388 Leukemia (intraperitoneal) in CD2F1 (CDF1) mice
Settings: endpoint: median survival time, higher = longer survival
Procedure, shortened: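 Mice carrying the transplanted tumor received test compound or vehicle. Survival was recorded in each group, and the value is the treated-group measurement divided by that of the vehicle-treated control group.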

[1] = dose: 50.0 mg/kg/injection, schedule: Q01DX005 (ip), vehicle: saline
[2] = dose: 100.0 mg/kg/injection, schedule: Q01DX005 (ip), vehicle: saline
[3] = dose: 200.0 mg/kg/injection, schedule: Q01DX005 (ip), vehicle: saline
[4] = dose: 60.0 mg/kg/injection, schedule: Q01DX005 (ip), vehicle: Klucel (hydroxypropylcellulose) (HPC)
[5] = dose: 120.0 mg/kg/injection, schedule: Q01DX005 (ip), vehicle: Klucel (hydroxypropylcellulose) (HPC)
[6] = dose: 50.0 mg/kg/injection, schedule: Q01DX005 (ip), vehicle: saline with Tween-80
[7] = dose: 50.0 mg/kg/injection, schedule: Q01DX005 (ip), vehicle: Klucel (hydroxypropylcellulose) (HPC)
[8] = dose: 100.0 mg/kg/injection, schedule: Q01DX005 (ip), vehicle: Klucel (hydroxypropylcellulose) (HPC)
[9] = dose: 200.0 mg/kg/injection, schedule: Q01DX005 (ip), vehicle: Klucel (hydroxypropylcellulose) (HPC)
[10] = dose: 25.0 mg/kg/injection, schedule: Q01DX005 (ip), vehicle: saline
[11] = dose: 100.0 mg/kg/injection, schedule: Q01DX009 (ip), vehicle: saline with Tween-80
[12] = dose: 200.0 mg/kg/injection, schedule: Q01DX009 (ip), vehicle: saline with Tween-80

SMILES: CN1CCC(C(=O)NNc2ccccc2)CC1
- T/C [1]: 100 % of control
- T/C [2]: 102 % of control
- T/C [3]: 102 % of control

SMILES: COc1cc(NN=C(C#N)C#N)c(OC)cc1Cl
- T/C (dose: 6.25 mg/kg/injection, schedule: Q01DX005 (ip), vehicle: Klucel (hydroxypropylcellulose) (HPC)): 102 % of control
- T/C (dose: 12.5 mg/kg/injection, schedule: Q01DX005 (ip), vehicle: Klucel (hydroxypropylcellulose) (HPC)): 107 % of control
- T/C (dose: 25.0 mg/kg/injection, schedule: Q01DX005 (ip), vehicle: Klucel (hydroxypropylcellulose) (HPC)): 107 % of control

SMILES: C=C(C)c1nc(N(C)C)nc(N(C)C)n1
- T/C (dose: 30.0 mg/kg/injection, schedule: Q01DX005 (ip), vehicle: Klucel (hydroxypropylcellulose) (HPC)): 98 % of control
- T/C [4]: 88 % of control and 95 % of control
- T/C [5]: 88 % of control

SMILES: O=C(c1ccc(-c2ccccc2)cc1)C1CC1c1ccccc1 (stereo unspecified)
- T/C (dose: 25.0 mg/kg/injection, schedule: Q01DX001 (ip), vehicle: saline sonified): 109 % of control
- T/C (dose: 50.0 mg/kg/injection, schedule: Q01DX001 (ip), vehicle: saline sonified): 90 % of control
- T/C (dose: 100.0 mg/kg/injection, schedule: Q01DX001 (ip), vehicle: saline sonified): 90 % of control

SMILES: O=C1OC(c2ccccc2)(c2ccccc2)c2cc3c(cc21)C(c1ccccc1)(c1ccccc1)OC3=O
- T/C (dose: 100.0 mg/kg/injection, schedule: Q01DX001 (ip), vehicle: saline): 93 % of control
- T/C (dose: 200.0 mg/kg/injection, schedule: Q01DX001 (ip), vehicle: saline): 93 % of control
- T/C (dose: 400.0 mg/kg/injection, schedule: Q01DX001 (ip), vehicle: saline): 92 % of control

SMILES: C=CCn1cc(F)c(=O)[nH]c1=O
- T/C (dose: 30.0 mg/kg/injection, schedule: Q04DX002 (ip), vehicle: saline): 97 % of control
- T/C (dose: 60.0 mg/kg/injection, schedule: Q04DX002 (ip), vehicle: saline): 100 % of control
- T/C (dose: 120.0 mg/kg/injection, schedule: Q04DX002 (ip), vehicle: saline): 104 % of control
- T/C (dose: 150.0 mg/kg/injection, schedule: Q04DX002 (ip), vehicle: saline): 100 % of control
- T/C (dose: 240.0 mg/kg/injection, schedule: Q04DX002 (ip), vehicle: saline): 99 % of control
- T/C (dose: 300.0 mg/kg/injection, schedule: Q04DX002 (ip), vehicle: saline): 98 % of control
- T/C (dose: 600.0 mg/kg/injection, schedule: Q04DX002 (ip), vehicle: saline): 106 % of control

SMILES: O=[N+]([O-])c1ccc(-c2csc(Nc3ccccn3)n2)o1
- T/C (dose: 12.5 mg/kg/injection, schedule: Q01DX005 (ip), vehicle: saline with Tween-80): 95 % of control
- T/C (dose: 25.0 mg/kg/injection, schedule: Q01DX005 (ip), vehicle: saline with Tween-80): 99 % of control
- T/C [6]: 88 % of control and 92 % of control

SMILES: C=C1C(=O)N2CCc3c([nH]c4ccccc34)[C@H]2C[C@@H]1CO
- T/C [7]: 95 % of control
- T/C [8]: 88 % of control
- T/C [9]: 96 % of control

SMILES: C1COCCSCCOCCOCCSCCO1
- T/C (dose: 100.0 mg/kg/injection, schedule: Q04DX003 (ip), vehicle: Klucel (hydroxypropylcellulose) (HPC)): 95 % of control
- T/C (dose: 200.0 mg/kg/injection, schedule: Q04DX003 (ip), vehicle: Klucel (hydroxypropylcellulose) (HPC)): 100 % of control
- T/C (dose: 400.0 mg/kg/injection, schedule: Q04DX003 (ip), vehicle: Klucel (hydroxypropylcellulose) (HPC)): 101 % of control

SMILES: Cc1ccc(C2ON2S(=O)(=O)c2ccc(C)cc2)cc1 (stereo unspecified)
- T/C (dose: 50.0 mg/kg/injection, schedule: Q01DX009 (ip), vehicle: Klucel (hydroxypropylcellulose) (HPC)): 113 % of control
- T/C (dose: 100.0 mg/kg/injection, schedule: Q01DX009 (ip), vehicle: Klucel (hydroxypropylcellulose) (HPC)): 105 % of control
- T/C (dose: 200.0 mg/kg/injection, schedule: Q01DX009 (ip), vehicle: Klucel (hydroxypropylcellulose) (HPC)): 100 % of control

SMILES: CC(=NC(C)C)Nc1ccc(Cl)cc1C
- T/C (dose: 50.0 mg/kg/injection, schedule: Q01DX009 (ip), vehicle: saline + Tween-80 + alcohol): 101 % of control
- T/C (dose: 100.0 mg/kg/injection, schedule: Q01DX009 (ip), vehicle: saline + Tween-80 + alcohol): 95 % of control

SMILES: CC1(C)OC(COCCOCCOCCCC#N)C(COCCOCCOCCCC#N)O1 (stereo unspecified)
- T/C [10]: 100 % of control
- T/C [1]: 103 % of control
- T/C [2]: 107 % of control
- T/C [3]: 98 % of control

SMILES: C[N+]1(C)CCC(C(=O)c2ccccc2)CC1
- T/C (dose: 6.25 mg/kg/injection, schedule: Q01DX005 (ip), vehicle: saline): 108 % of control
- T/C (dose: 12.5 mg/kg/injection, schedule: Q01DX005 (ip), vehicle: saline): 96 % of control
- T/C [10]: 95 % of control

SMILES: C=C1C(=O)C23OC2C1CCC(=O)C1(C)CC[C@H](OC(C)=O)C(C)(C)[C@H]1CC3=O (stereo partly specified)
- T/C (dose: 2.5 mg/kg/injection, schedule: Q01DX005 (ip), vehicle: Klucel (hydroxypropylcellulose) (HPC)): 111 % of control
- T/C (dose: 5.0 mg/kg/injection, schedule: Q01DX005 (ip), vehicle: Klucel (hydroxypropylcellulose) (HPC)): 107 % of control
- T/C (dose: 10.0 mg/kg/injection, schedule: Q01DX005 (ip), vehicle: Klucel (hydroxypropylcellulose) (HPC)): 107 % of control

SMILES: O=C(O[Si](Cc1ccccc1)(Cc1ccccc1)Cc1ccccc1)N(CCCl)CCCl
- T/C (dose: 12.5 mg/kg/injection, schedule: Q04DX002 (ip), vehicle: saline with Tween-80): 111 % of control
- T/C (dose: 25.0 mg/kg/injection, schedule: Q04DX002 (ip), vehicle: saline with Tween-80): 120 % of control
- T/C (dose: 25.0 mg/kg/injection, schedule: Q04DX003 (ip), vehicle: saline): 154 % of control
- T/C (dose: 50.0 mg/kg/injection, schedule: Q04DX002 (ip), vehicle: saline with Tween-80): 159 % of control
- T/C (dose: 50.0 mg/kg/injection, schedule: Q04DX003 (ip), vehicle: saline): 214 % of control
- T/C (dose: 100.0 mg/kg/injection, schedule: Q04DX002 (ip), vehicle: saline with Tween-80): 180 % of control

SMILES: CCOC(=O)C1(Br)CCCCC1
- T/C (dose: 50.0 mg/kg/injection, schedule: Q01DX009 (ip), vehicle: saline with Tween-80): 109 % of control
- T/C [11]: 111 % of control
- T/C [12]: 103 % of control

SMILES: O=C1C=C\C(=C/C=C\C=C2/C=CC(=O)O2)O1
- T/C [7]: 93 % of control
- T/C [8]: 100 % of control
- T/C [9]: 96 % of control

SMILES: COc1ccc(N=Nc2c(C)nn(C(=S)S)c2C)cc1
- T/C [6]: 113 % of control
- T/C (dose: 100.0 mg/kg/injection, schedule: Q01DX005 (ip), vehicle: saline with Tween-80): 101 % of control
- T/C (dose: 200.0 mg/kg/injection, schedule: Q01DX005 (ip), vehicle: saline with Tween-80): 106 % of control

SMILES: O=c1[nH]c2ccccc2nc1/C=C(\O)c1ccc([N+](=O)[O-])cc1
- T/C (dose: 7.5 mg/kg/injection, schedule: Q01DX005 (ip), vehicle: Klucel + Tween-80): 100 % of control
- T/C (dose: 15.0 mg/kg/injection, schedule: Q01DX005 (ip), vehicle: Klucel + Tween-80): 89 % of control
- T/C (dose: 30.0 mg/kg/injection, schedule: Q01DX005 (ip), vehicle: Klucel + Tween-80): 86 % of control

SMILES: CCCCCCCCCCCCOC(=O)OCCCCCCCCCCCC
- T/C (dose: 100.0 mg/kg/injection, schedule: Q04DX003 (ip), vehicle: saline with Tween-80): 100 % of control
- T/C (dose: 200.0 mg/kg/injection, schedule: Q04DX003 (ip), vehicle: saline with Tween-80): 100 % of control
- T/C (dose: 400.0 mg/kg/injection, schedule: Q04DX003 (ip), vehicle: saline with Tween-80): 100 % of control

SMILES: O=c1nc(N2CCCC2)oc2cc3ccccc3cc12
- T/C [4]: 95 % of control
- T/C [5]: 98 % of control
- T/C (dose: 240.0 mg/kg/injection, schedule: Q01DX005 (ip), vehicle: Klucel (hydroxypropylcellulose) (HPC)): 95 % of control

SMILES: Cc1ccc(S(=O)(=O)N2CCC(O)(c3ccccc3)CC2)cc1
- T/C (dose: 100.0 mg/kg/injection, schedule: Q01DX001 (ip), vehicle: Klucel (hydroxypropylcellulose) (HPC)): 94 % of control
- T/C (dose: 200.0 mg/kg/injection, schedule: Q01DX001 (ip), vehicle: Klucel (hydroxypropylcellulose) (HPC)): 94 % of control
- T/C (dose: 400.0 mg/kg/injection, schedule: Q01DX001 (ip), vehicle: Klucel (hydroxypropylcellulose) (HPC)): 93 % of control

SMILES: Cc1c2cc[n+]([O-])cc2c(C)c2c1oc1ccccc12
- T/C (dose: 25.0 mg/kg/injection, schedule: Q01DX009 (ip), vehicle: saline with Tween-80): 115 % of control
- T/C [11]: 154 % of control
- T/C [12]: 165 % of control and 173 % of control

Source: PubChem BioAssay AID330 (DTP/NCI, 2004)
